Assay: Compound was evaluated for inhibitory effect against protein phosphatase I (PP-I)

IC50 [µM] | Compound
3 | CCCCCCCCCCCCCCCC(=O)OC[C@@H](O)[C@H]1OC(=O)[C@]2(CCC(OC(C)C)O2)C1=O (stereo partly drawn) [Hexadecanoic acid (R)-2-hydroxy-2-((5S,8R)-2-isopropoxy-6,9-dioxo-1,7-dioxa-spiro[4.4]non-8-yl)-ethyl ester]
11 | CCCCCCCCCCCCCCCC(=O)OC[C@@H](O)[C@H]1OC(=O)[C@]2(O)CCC(O)O[C@]12OC (stereo partly drawn) [Hexadecanoic acid (R)-2-((4aS,7R,7aR)-2,4a-dihydroxy-7a-methoxy-5-oxo-hexahydro-furo[3,4-b]pyran-7-yl)-2-hydroxy-ethyl ester]
